“Also recorded” adds a separate entry of the source.
How the values were obtained:
MIN6 cells = assay: Immunoblotting of MIN6 whole cell lysates; assay type: cell-based, mouse
Procedure: FIGS. 2[…]-1) activates insulin expression and improves β cell function in MIN6 cells. (FIG. 2A) Dose-response relationship of MIN6 cells treated with 5-80 μM Isx for 24 h or DMSO (0.08%-similar to the highest concentration of Isx). Whole cell lysates (40 μg) were subjected to immunoblotting using antibodies against BETA2NeuroD1, MafA, PDX-1, pERK1/2 (pT183/[…]), acetylated histones […] and ACH3K9 and total histone H3. (FIG. 2B) Quantitative RT-PCR of murine insulin1 and insulin2 gene expression in MIN6 cells treated with Isx for 24 h as in FIG. 2A. […] (FIG. 2D) Insulin content measured by ELISA in MIN6 cells treated with Isx for 24 or 48 h. (FIG. 2E) GSIS induced by glucose, amino acids (AA) and Exendin-4 (Ex-4) singly or in combination in MIN6 cells pretreated with Isx for 48 h. FIGS. 4[…]-1) is a HAT activator. (FIG. 4A) Immunoblots of acetylated histones in MIN6 cells pretreated with the indicated inhibitors for 16 h and then treated with vehicle or Isx. (FIGS. 4B-C) HDAC (FIG. 4B) and HAT (FIG. 4C) activities in 50 μg of nuclear extract protein from MIN6 cells treated with Isx or DMSO for 24 h. Trichostatin A (TSA; 2 μM) was added at as a positive control. HeLa nuclear extract also was included as a positive control. […] Statistical analysis was performed using Student's t test as in FIGS. 1A-E. *P<0.05; **P<0.01. (FIG. 4G) Simplified view of the actions of Isx. FIG. 6. Time course of […]-1) treatment in MIN6 cells. Immunoblotting of whole cell extracts from MIN6 cells grown for 24 h in complete DMEM containing […] and treated with 20 μM Isx for from 15 min to 24 h. The control (0 min) was treated with DMSO for 24 h. MIN6 cells were cultured in DMEM (Gibco), containing 25 mM glucose, 10% fetal bovine serum, 10 mM Hepes pH 7.4, 10.2 mM L-glutamine, […] sodium pyruvate, 2.5 mM β-mercaptoethanol, 100 U/ml penicillin and 100 μg/ml streptomycin at 37° C. in 10% CO2. Human islets were obtained from the ICR Basic Science Islet Distribution and from the University of Alabama, Birmingham Islet Resource Facility and were cultured in RPMI 1640 with 11 mM glucose for up to 1 year. The medium was changed twice weekly and the islets were subcultured when they reached 90% confluence. For Isx treatments, cells were incubated in medium containing either Isx or the equivalent volume of DMSO vehicle (0.04%). To measure GSIS, cells were placed in Krebs-Ringer bicarbonate/Hepes containing 0.1% bovine serum albumin and 2 mM glucose for 2 h, and stimulated for 15 min with 20 mM glucose, a 1× amino-acid mixture (concentrations as in DMEM), or 50 nM Exendin-4.

HAT = HAT activity in nuclear extracts of treated MIN6 cells; assay type: cell-based, mouse
Procedure: The histone acetyl transferase and deacetylase activities were measured in 50 μg of nuclear protein using the HAT and HDAC activity colorimetric assay kits from Biovision Biotechnology according to manufacturer's recommendations.

BETA2 = assay: Acetylation of BETA2 (anti-myc immunoprecipitates, anti-acetyl lysine immunoblot); assay type: cell-based; conditions: cells overexpressing myc-BETA2 (FIG. 3C)
Procedure: FIGS. 3A-E. Isx (LSH-1) activates transcription factors that regulate insulin gene expression and insulin production. (FIG. 3A) Insulin promoter reporter activity in HEK293 cells transfected with BETA2, MafA, PDX-1, or (FIG. 3B) WT MafA or mutant MafA, treated with Isx or vehicle for 24 h. (FIG. 3C) Immunoblotting of anti-myc immunoprecipates using anti-acetyl lysine (Ac-K) and anti-BETA2 from cells overexpressing myc-BETA2. (FIG. 3D) Chromatin immunoprecipitation (ChIP) analysis of MafA and BETA2 (FIG. 3E) association with the insulin promoter in MIN6 cells in response to a 10-min glucose stimulation.

[1] = 24 h exposure, 5-80 μM Isx (FIG. 2A)

In the case of `O=C(NC1CC1)c1cc(-c2cccs2)on1` [Isx, N-cyclopropyl-5-(thiophen-2-yl)isoxazole-3-carboxamide], the “ERK1/2 activation, time course” value (MIN6 cells; 20 μM Isx, 15 min to 24 h (FIG. 6)) is reported as “biphasic effect”, the MafA expression (MIN6 cells; [1]) is reported as “increased substantially” and the PDX-1 expression (MIN6 cells; [1]) is reported as “little if any change”. For the same molecule, the “immunoreactive BETA2” value (MIN6 cells; [1]) was “increased at all concentrations”, the “Acetylation of histone H3 and H4” value (MIN6 cells; MIN6 cells treated with Isx (FIG. 2A, FIG. 4A)) was “increased; also recorded: marked effect” and the ERK1/2 phosphorylation (MIN6 cells; following 24 h of exposure) was “detectable”. For the same molecule, the HAT activity increase (HAT; nuclear extracts from Isx-treated MIN6 cells, 24 h (FIG. 4C)) was ~2 fold, the “HAT activity in nuclear extracts of MIN6 cells expressing p300” value (HAT; over and above that from expressed p300) was “increased” and the “acetylation of BETA2” value (BETA2) was “more strongly than the HDAC inhibitor sodium butyrate”.

— patent publication US9221800B2, “Isoxazole treatments for diabetes” (The Board of Regents of the University of Texas System, priority 2011, dated 2015)
